Measurements as given in patent US9995734B2, “Human T cell line assay for evaluating the immunologic identity of glatiramer acetate preparations” (Mylan Inc., priority 2013, dated 2018).
Several values for one entry are separate records, joined by “and”; a condition that tells them apart may be missing. Identical values can stand only once.

Legend:
Type in all cases: cell-based, human
Donor 3 GMA T-Cell Lines = test: ATP proliferation assay (CellTiter Glo), Donor 3 GMA T-cell lines, incl. reactivity to non-canonical GA peptides; settings: Day 50 of culturing
Donor 3 COP T-Cell Lines = test: ATP proliferation assay (CellTiter Glo), Donor 3 COP T-cell lines, incl. reactivity to non-canonical GA peptides; settings: for Non-Canonical Peptide Non-Reactivity: proliferation <2 times no antigen control
Donor 1 COP T-Cell Lines = test: Multiplex bead cytokine assay (FlowCytoMix), Donor 1 COP T-cell lines; settings: 222-2D8, 222-1H12, 222-2F12; Day 56; 48 hours; 1, 3, 10 μg/mL
Description: Culture medium was removed from cultures prepared as for proliferation assay and utilized to measure cytokine production. In most cases culture medium was collected 18-24 hours after mixing T-cells, APC, and stimulating antigen. Cytokine production was measured by ELISA or bead assay. For measuring cytokine production, 100-150 μL culture medium (100 μL if culture was to be continued, otherwise 150 μL) was removed from each well. In some cases, the culture was continued 48 hours, for a total of 72 hours of culture, and the proliferative response measured.
The concentration of multiple cytokines was measured simultaneously using FlowCytoMix™ kits (eBioscience, San Diego Calif.). These are fluorescent bead based assays consisting of beads conjugated to anti cytokine antibodies. Beads specific for each cytokine are distinguished by size and fluorescence at 670 run. Cytokine bound to each bead is detected using a phycoerythrin conjugated antibody so that the fluorescence at 585 nm reflects the concentration of cytokine in the sample. Two kits were utilized which measured different cytokine panels. The TH1/TH2 kit measures IFN-γ, IL-1β, IL-2, IL-4, IL-5, IL-6, IL-8, IL-10, IL-12p70, TNF-α (TNF) and TNF-β (LT). The TH1/TH2/TH9/TH17/TH22 kit measures […], IL-1β, IL-2, IL-4, IL-5, IL-6, IL-9, IL-10, IL-12p70, IL-13, IL-17, IL-22, and TNF-α (TNF). Both kits were used following the manufacturer's instructions.
IL-12p70, IFN-γ, IL-2, IL-10, IL-8, IL-6, IL-5, IL-4, IL-1β, TNF-α (TNF), and TNF-β (LT) secretion were measured in response to stimulation with 1, 3, or 10 μg/mL GMA, or 1, 3, or 10 μg/mL COP, as well as a no-antigen control and an MBP control, in the presence of autologous EBV-transformed B-LCL.

Donor 4 COP T-Cell Lines = test: ATP proliferation assay (CellTiter Glo), Donor 4 COP T-cell lines, incl. reactivity to non-canonical GA peptides; settings: for Non-Canonical Peptide Non-Reactivity: proliferation <2 times no antigen control; for Proliferation (luminescent ATP assay), Mean: T-cell line 205-1F4, Day 71, autologous B-LCL; for Reactivity (proliferation), Mean: T-cell line 205-1H3, 0 μg/mL 4121.0

In the case of EKPKVEAYKAAAAPA [STERN], the “Proliferation (luminescent ATP assay), Mean” value (Donor 3 GMA T-Cell Lines; T-cell line 165-05G, 1 μg/mL antigen, No Antigen Value 2149) is reported as 1750 RLU, the “Proliferation (luminescent ATP assay), Mean” value (Donor 3 GMA T-Cell Lines; T-cell line 165-05G, 3 μg/mL antigen, No Antigen Value 2149) is reported as 1606 RLU and the “Proliferation (luminescent ATP assay), Mean” value (Donor 3 GMA T-Cell Lines; T-cell line 165-05G, 10 μg/mL antigen, No Antigen Value 2149) is reported as 1650 RLU. For the same substance, the “Proliferation (luminescent ATP assay), Mean” value (Donor 3 GMA T-Cell Lines; T-cell line 165-05G, 30 μg/mL antigen, No Antigen Value 2149) was 1572 RLU, the “Proliferation (luminescent ATP assay), Mean” value (Donor 3 GMA T-Cell Lines; T-cell line 165-E9G, 1 μg/mL antigen, No Antigen Value 1742) was 1673 RLU and the “Proliferation (luminescent ATP assay), Mean” value (Donor 3 GMA T-Cell Lines; T-cell line 165-E9G, 3 μg/mL antigen, No Antigen Value 1742) was 1480 RLU. The “Proliferation (luminescent ATP assay), Mean” value (Donor 3 GMA T-Cell Lines; T-cell line 165-E9G, 30 μg/mL antigen, No Antigen Value 1742) was 1487 RLU, the “Proliferation (luminescent ATP assay), Mean” value (Donor 3 GMA T-Cell Lines; T-cell line 165-E9G, 10 μpg/mL antigen, No Antigen Value 1742) was 1471 RLU and the “Proliferation (luminescent ATP assay), Mean” value (Donor 3 GMA T-Cell Lines; T-cell line 165-F10G, 1 μg/mL antigen, No Antigen Value 3752) was 2465 RLU. The “Proliferation (luminescent ATP assay), Mean” value (Donor 3 GMA T-Cell Lines; T-cell line 165-F10G, 3 μg/mL antigen, No Antigen Value 3752) was 2389 RLU, the “Proliferation (luminescent ATP assay), Mean” value (Donor 3 GMA T-Cell Lines; T-cell line 165-F10G, 10 μg/mL antigen, No Antigen Value 3752) was 2030 RLU and the “Proliferation (luminescent ATP assay), Mean” value (Donor 3 GMA T-Cell Lines; T-cell line 165-F10G, 30 μg/mL antigen, No Antigen Value 3752) was 2583 RLU. For the same substance, the “Proliferation (luminescent ATP assay), Mean” value (Donor 3 GMA T-Cell Lines; T-cell line 165-H11G, 1 μg/mL antigen, No Antigen Value 1485) was 2279 RLU, the “Proliferation (luminescent ATP assay), Mean” value (Donor 3 GMA T-Cell Lines; T-cell line 165-H11G, 3 μg/mL antigen, No Antigen Value 1485) was 2118 RLU and the “Proliferation (luminescent ATP assay), Mean” value (Donor 3 GMA T-Cell Lines; T-cell line 165-H11G, 10 μg/mL antigen, No Antigen Value 1485) was 2418 RLU. The “Proliferation (luminescent ATP assay), Mean” value (Donor 3 GMA T-Cell Lines; T-cell line 165-H11G, 30 μg/mL antigen, No Antigen Value 1485) was 2296 RLU and the “proliferation response to non-canonical peptides” value (Donor 3 COP T-Cell Lines; 165-E3C, separate experiment) was “did not react”.
“L-glutamic acid polymer with L-alanine, L-lysine and L-tyrosine, acetate (salt) [GA]” was tested, and the “cytokine secretion, dose comparison” value (Donor 1 COP T-Cell Lines) was “highest levels of cytokines”.
With poly (Glu-Ala; 6:4) [GA 64] the “Non-Canonical Peptide Non-Reactivity” value (Donor 4 COP T-Cell Lines; 205-1F4) was “GA 64”, the “Non-Canonical Peptide Non-Reactivity” value (Donor 4 COP T-Cell Lines; 205-1H3) was “GA 64” and the “Nonreactive T-Cell Line” value (Donor 4 COP T-Cell Lines; Donor 4 COP lines, stimulation with the non-canonical GA peptide) was 205-1F4 (Donor 4) and 205-1H3 (Donor 4). For the same substance, the “Proliferation (luminescent ATP assay), Mean” value (Donor 4 COP T-Cell Lines; 1 μg/mL antigen) was 2544, the “Proliferation (luminescent ATP assay), Mean” value (Donor 4 COP T-Cell Lines; 3 μg/mL antigen) was 2261 and the “Proliferation (luminescent ATP assay), Mean” value (Donor 4 COP T-Cell Lines; 10 μg/mL antigen) was 2080. The “Reactivity (proliferation), Mean” value (Donor 4 COP T-Cell Lines; 1 μg/mL antigen) was 4012.0, the “Reactivity (proliferation), Mean” value (Donor 4 COP T-Cell Lines; 3 μg/mL antigen) was 4246.0 and the “Reactivity (proliferation), Mean” value (Donor 4 COP T-Cell Lines; 10 μg/mL antigen) was 2054.3. For the same substance, the “Non-Canonical Peptide Non-Reactivity” value (Donor 3 COP T-Cell Lines; 165-C4C) was “GA64”, the “Non-Canonical Peptide Non-Reactivity” value (Donor 3 COP T-Cell Lines; 165-F3C) was “GA 64” and the “Non-Canonical Peptide Non-Reactivity” value (Donor 3 COP T-Cell Lines; 165-F6C) was “GA64”. The “Nonreactive T-Cell Line” value (Donor 3 COP T-Cell Lines; Donor 3 COP lines, stimulation with the non-canonical GA peptide) was 165-C4C (Donor 3) and 165-F3C (Donor 3) and 165-F6C (Donor 3), the “Proliferation (luminescent ATP assay), Mean” value (Donor 3 COP T-Cell Lines; T-cell line 165-C4C, 1 μg/mL antigen, Day 66 of culture, 0 μg/mL 1881) was 2205 and the “Proliferation (luminescent ATP assay), Mean” value (Donor 3 COP T-Cell Lines; T-cell line 165-C4C, 3 μg/mL antigen, Day 66 of culture, 0 μg/mL 1881) was 2229. The “Proliferation (luminescent ATP assay), Mean” value (Donor 3 COP T-Cell Lines; T-cell line 165-C4C, 10 μg/mL antigen, Day 66 of culture, 0 μg/mL 1881) was 2244, the “Proliferation (luminescent ATP assay), Mean” value (Donor 3 COP T-Cell Lines; T-cell line 165-F3C, 1 μg/mL antigen, Day 77 of culture, 0 μg/mL 1563) was 1791 and the “Proliferation (luminescent ATP assay), Mean” value (Donor 3 COP T-Cell Lines; T-cell line 165-F3C, 3 μg/mL antigen, Day 77 of culture, 0 μg/mL 1563) was 1943. The “Proliferation (luminescent ATP assay), Mean” value (Donor 3 COP T-Cell Lines; T-cell line 165-F3C, 10 μg/mL antigen, Day 77 of culture, 0 μg/mL 1563) was 1870.
